Measured values reported in patent US20050287078A1, “Minimizing powder retention on surfaces” (MEDERIO AG, priority 2004, published 2005).

Test: Ipratropium climate stability tests (fine particle dose out of HandiHaler, Andersen impactor)
Conditions: Atrovent powder, 1 month at 25° C./60% Rh or 40° C./75% Rh, FIG. 4
Protocol: The powder was withdrawn from the originator's capsules and transferred to the capsules again after climate storage. The aerodynamic fine particle fraction (FPF) in the emitted dose from the HandiHaler® was measured using Andersen impactors according to European Pharmacopoeia (EP) and US Pharmacopoeia (USP). All analytical work were then performed according to standardized methods using a state of the art High Performance Liquid Chromatograph (HPLC) system.
Aerodynamic fine particle fraction of metered and delivered dose out of Handihaler® using Atrovent® formulation powder was analyzed. Transfer of powder from and back into originator capsules was performed in relative humidity below 10%. The test was performed with 4 kPa pressure drop over the HandiHaler® at room temperature and laboratory ambient conditions.
An in-use stability test was carried out of the aerodynamic fine particle fraction of metered and delivered dose out of Handihaler®. From the blister holding the Atrovent® capsules the powder was transferred to a medium moisture barrier container and sealed. The containers were put for 1 month in 25° C. and 60% Rh. The container holding the powder was then put in an exicator for 2 h before tests were performed. The inhaler test was performed with 4 kPa pressure drop over the HandiHaler® at room temperature and laboratory ambient conditions. […]

## CC(C)[N+]1(C)[C@@H]2CC[C@H]1CC(OC(=O)C(CO)c1ccccc1)C2.[Br-] (stereo partly shown) [ipratropium bromide]
  Moisture sensitivity (drop in fine particle dose, FPD): very moisture sensitive
